Patent publication US9023789B2, “Amylin analogs and pharmaceutical compositions thereof” (Novo Nordisk A/S, priority 2012, dated 2015)
Converted amounts (≈) assume the structure as drawn. Read-outs that look alike come from different tables or passages of the source. Numbered stars: 1 amine (or outer) side, 2 acyl side, 3 side chain; on linkers, the order of the positions; unused ones are H or OH. Bridge positions count the residues as written; N and C are the ends. Side chains are listed from the residue outwards. Peptide text beside a SMILES is read from it. * marks the point of attachment. C20 diacid = O=C(O)CCCCCCCCCCCCCCCCCCC(=O)*; γGlu = O=C(O)[C@H](CCC(=O)[*:2])N[*:1]

How the values were obtained:
[1] = target: T1, human calcitonin receptor (Homo sapiens, UniProt P30988); assay: ASSAY (VII) binding to the human calcitonin receptor (SPA, 125I-Calcitonin); conditions: read-out: hCTR bind IC50;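 also: cell membranes (35 ng/µL) combined with SPA beads in 40 µL of pH 7.4 Hepes buffer, 384-well format, signal counted on a TopCounter instrument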
T1 construct: expressed in transfected cells
T1 sequence (P30988 25-474): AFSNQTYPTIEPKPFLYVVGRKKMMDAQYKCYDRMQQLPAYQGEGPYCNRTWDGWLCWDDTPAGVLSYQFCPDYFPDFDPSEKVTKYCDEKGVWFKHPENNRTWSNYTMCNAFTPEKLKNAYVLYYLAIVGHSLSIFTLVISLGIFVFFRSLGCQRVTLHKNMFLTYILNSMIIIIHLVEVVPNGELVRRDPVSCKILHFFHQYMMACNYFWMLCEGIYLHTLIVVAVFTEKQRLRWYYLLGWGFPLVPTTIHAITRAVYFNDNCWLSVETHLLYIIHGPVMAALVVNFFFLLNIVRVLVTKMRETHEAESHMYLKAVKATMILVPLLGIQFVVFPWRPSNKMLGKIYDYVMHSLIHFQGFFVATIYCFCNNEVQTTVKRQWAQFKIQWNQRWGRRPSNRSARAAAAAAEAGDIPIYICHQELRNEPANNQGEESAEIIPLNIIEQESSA

[2] = ASSAY (IV) determination of solubility; assay type: physicochemical
Method in brief: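 Polypeptide in water at […] mixed 1:1 with 100 mM buffers of pH 3.0-8.0 (glycylglycine pH 3-5, bistrispropane pH 6-8). Held 18 h at room temperature, then centrifuged; concentration remaining in solution measured by UPLC.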

[3] = target: T2, human calcitonin (a) receptor in BHK570 cells (Homo sapiens, UniProt P30988); assay: ASSAY (II)a functional assay, human calcitonin receptor (CRE luciferase); assay type: cell-based; conditions: read-out: hCTR funct. EC50
T2 construct: expressed in transfected cells
T2 sequence (P30988 25-474): T1 sequence (P30988 25-474)
Method in brief: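 BHK CRE-luc cells, calcitonin (a) receptor ± RAMP-3 (amylin 3(a)); overnight seeding, 37° C/5% CO2. 3 h ligand exposure, DMEM/10% FBS/10 mM Hepes pH 7.4. LucLite 30 min RT; luminescence (SPC).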

[4] = target: T3, human amylin receptor (membranes from Amylin 3(a)/CRE-luc cells) (Homo sapiens, UniProt O60896+P30988); assay: ASSAY (V) binding to the human amylin receptor (SPA, 125I-rat amylin); conditions: for IC50: Table 4, read-out: hAmylin-R bind IC50;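 as to all read-outs here: competition binding of cell membranes (35 ng/µL) mixed with SPA beads in 384-well plates at 40 µL total volume, read by scintillation counting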
T3 construct: expressed in transfected cells
T3 sequence (P30988 25-474): T1 sequence (P30988 25-474)
T3 sequence (O60896 24-148 partner): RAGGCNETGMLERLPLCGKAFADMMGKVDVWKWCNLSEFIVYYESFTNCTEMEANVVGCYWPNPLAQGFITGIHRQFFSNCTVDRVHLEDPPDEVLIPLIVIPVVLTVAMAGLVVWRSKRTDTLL

[5] = target: T4, rat calcitonin receptor (Rattus norvegicus, UniProt P32214); assay: ASSAY (VIII) binding to the rat calcitonin receptor; conditions: Table 7, read-out: rCTR bind IC50
T4 construct: expressed in transfected cells; host or cells: BHK tk'ts 13 (transient, FuGENE 6), membranes
T4 sequence (P32214 25-479 isoform P32214-2 limits assumed): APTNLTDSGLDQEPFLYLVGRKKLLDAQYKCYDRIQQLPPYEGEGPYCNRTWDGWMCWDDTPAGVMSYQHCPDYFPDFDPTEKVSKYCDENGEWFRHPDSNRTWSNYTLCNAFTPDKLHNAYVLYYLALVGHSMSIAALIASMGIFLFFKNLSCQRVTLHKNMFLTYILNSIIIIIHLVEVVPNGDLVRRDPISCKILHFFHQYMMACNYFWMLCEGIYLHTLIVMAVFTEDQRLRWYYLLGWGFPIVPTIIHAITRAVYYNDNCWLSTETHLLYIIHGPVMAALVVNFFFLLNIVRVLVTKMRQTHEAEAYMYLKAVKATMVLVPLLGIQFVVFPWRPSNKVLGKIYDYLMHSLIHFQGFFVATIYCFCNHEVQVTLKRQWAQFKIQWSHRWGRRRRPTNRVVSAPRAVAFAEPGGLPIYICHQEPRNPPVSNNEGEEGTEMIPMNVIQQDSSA
Method in brief: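 Membranes were prepared from BHK tk′ts 13 cells transiently transfected with rat calcitonin receptor. Cells were grown in DMEM with 10% FBS and harvested approximately 48 hours after transfection.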

[6] = target: T5, rat amylin receptor (rat calcitonin receptor + rat RAMP 3) (Rattus norvegicus, UniProt P32214+Q9JJ73); assay: ASSAY (VI) binding to the rat amylin receptor; conditions: for IC50: binding to rat amylin receptor, read-out: rAmylin-R bind IC50
T5 construct: expressed in transfected cells; host or cells: BHK tk'ts 13 (transient, FuGENE 6), membranes
T5 sequence (P32214 25-479 isoform P32214-2 limits assumed): T4 sequence (P32214 25-479 isoform P32214-2 limits assumed)
T5 sequence (Q9JJ73 23-147 partner): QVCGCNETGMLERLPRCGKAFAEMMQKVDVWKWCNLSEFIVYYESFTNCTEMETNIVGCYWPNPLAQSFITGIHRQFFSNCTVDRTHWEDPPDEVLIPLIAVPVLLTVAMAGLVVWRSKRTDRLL
Method in brief: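 This assay measured binding to the rat amylin receptor. BHK tk′ts 13 cells were transiently transfected with the rat calcitonin receptor using FuGENE® 6 (Roche), following the manufacturer's recommendations. About 48 hours after transfection, the cells were harvested and membranes were prepared from them for the binding determination.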

[7] = bistrispropane buffer, pH 6.5, read-out: Solubility pH 6.5 Concentration
[8] = bistrispropane buffer, pH 7.5, read-out: Solubility pH 7.5 Concentration
[9] = bistrispropane buffer, pH 6.0, read-out: Solubility pH 6.0 Concentration
[10] = bistrispropane buffer, pH 7.0, read-out: Solubility pH 7.0 Concentration
[11] = bistrispropane buffer, pH 8.0, read-out: Solubility pH 8.0 Concentration
[12] = glycylglycine buffer, pH 3.0, read-out: Solubility pH 3.0 Concentration
[13] = glycylglycine buffer, pH 4.0, read-out: Solubility pH 4.0 Concentration
[14] = glycylglycine buffer, pH 5.0, read-out: Solubility pH 5.0 Concentration
[15] = Table 5, selectivity, hCTR bind IC50 / hAmylin-R bind IC50
[16] = Table 5a, selectivity, hCTR bind IC50 / hAmylin-R bind IC50
[17] = Table 5b, selectivity, hCTR bind IC50 / hAmylin-R bind IC50
[18] = Table 5c, selectivity, hCTR bind IC50 / hAmylin-R bind IC50
[19] = Table 7, human binding selectivity, included for comparison
[20] = Table 7a (preferred compounds), human binding selectivity, included for comparison
[21] = ratio of human calcitonin receptor binding IC50 to human amylin receptor binding IC50
[22] = Table 7, rat binding selectivity, rCTR IC50 / rAmylin-R IC50
[23] = Table 7a (preferred compounds), rat binding selectivity, rCTR IC50 / rAmylin-R IC50
[24] = ratio of rCTR bind IC50 to rAmylin-R bind IC50

| IC50 [1] [nM] | solubility at 18 h [2, 7] [µM] | solubility at 18 h [2, 8] [µM] | solubility at 18 h [2, 9] [µM] | solubility at 18 h [2, 10] [µM] | solubility at 18 h [2, 11] [µM] | solubility at 18 h [2, 12] [µM] | solubility at 18 h [2, 13] [µM] | solubility at 18 h [2, 14] [µM] | EC50 [3] [nM] | IC50 [4] [nM] | Ratio hCT/hAmylin binding [4, 15] | Ratio hCT/hAmylin binding [4, 16] | Ratio hCT/hAmylin binding [4, 17] | Ratio hCT/hAmylin binding [4, 19] | Ratio hCT/hAmylin binding [4, 20] | IC50 [5] [nM] | IC50 ([6]; Table 7) [nM] | Ratio rCT/rAmylin binding [6, 22] | Ratio rCT/rAmylin binding [6, 23] | Structure (SMILES) | further results |
| --- | --- | --- | --- | --- | --- | --- | --- | --- | --- | --- | --- | --- | --- | --- | --- | --- | --- | --- | --- | --- | --- |
| 19.3 | ≥ 200 | ≥ 200 | ≥ 200 | ≥ 200 | ≥ 200 | ≥ 200 | ≥ 200 | ≥ 200 | 2.52 | 0.665 | 29.0 | 29.0 | 29.0 | 29.0 | 29.0 | 96.4 | 1.77 | 54.5 | 54.5 | CC[C@H](C)[C@H](NC(=O)[C@H](C)NC(=O)CNC(=O)[C@H](Cc1ccccc1)NC(=O)[C@H](CC(N)=O)NC(=O)[C@@H]1CCCN1C(=O)[C@H](CO)NC(=O)[C@H](CO)NC(=O)[C@H](Cc1c[nH]cn1)NC(=O)[C@H](CCCNC(=N)N)NC(=O)[C@H](CC(C)C)NC(=O)[C@H](Cc1ccccc1)NC(=O)[C@H](CC(N)=O)NC(=O)[C@H](C)NC(=O)[C@H](CC(C)C)NC(=O)[C@H](CCCNC(=N)N)NC(=O)[C@H](CCC(N)=O)NC(=O)[C@@H](NC(=O)[C@H](C)NC(=O)[C@@H]1CSSC[C@H](NC(=O)[C@H](CCCCN)NC(=O)CC[C@H](NC(=O)CCCCCCCCCCCCCCCCCCC(=O)O)C(=O)O)C(=O)N[C@@H](CC(N)=O)C(=O)N[C@@H]([C@@H](C)O)C(=O)N[C@@H](C)C(=O)N[C@@H]([C@@H](C)O)C(=O)N1)[C@@H](C)O)C(=O)N1CCC[C@H]1C(=O)N[C@@H](CO)C(=O)N[C@@H](CO)C(=O)N[C@H](C(=O)N[C@@H](CC(N)=O)C(=O)N[C@H](C(=O)NCC(=O)N[C@@H](CCCNC(=N)N)C(=O)N[C@@H](CC(N)=O)C(=O)N[C@H](C(=O)N[C@@H](Cc1ccc(O)cc1)C(N)=O)[C@@H](C)O)C(C)C)[C@@H](C)O [Example 39] ({C20 diacid-γGlu}-KCNTATCATQRLANFLRHSSPNFGAIPSSTNVGRNTY-NH2; disulfide 2-7) | Ratio hCT/hAmylin binding [4, 18]: 29.0; Ratio hCT/hAmylin binding [4, 21]: 29.0; Ratio rCT/rAmylin binding [6, 24]: 54.5 |
| 48.7 | ≥ 200 | ≥ 200 | ≥ 200 | ≥ 200 | ≥ 200 | ≥ 200 | ≥ 200 | ≥ 200 | 5.46 | 0.97 | 50.3 | 50.3 | 50.3 | 50.3 | 50.3 | 61.7 | 0.948 | 65.1 | 65.1 | CC[C@H](C)[C@H](NC(=O)[C@H](C)NC(=O)CNC(=O)[C@H](Cc1ccccc1)NC(=O)[C@H](CC(N)=O)NC(=O)[C@@H]1CCCN1C(=O)[C@H](CO)NC(=O)[C@H](CO)NC(=O)[C@H](Cc1c[nH]cn1)NC(=O)[C@H](CCCNC(=N)N)NC(=O)[C@H](CC(C)C)NC(=O)[C@H](Cc1ccccc1)NC(=O)[C@H](CC(N)=O)NC(=O)[C@H](C)NC(=O)[C@H](CC(C)C)NC(=O)[C@H](CCCNC(=N)N)NC(=O)[C@H](CCC(N)=O)NC(=O)[C@@H](NC(=O)[C@H](C)NC(=O)[C@@H]1CSSC[C@H](NC(=O)[C@@H](N)CCCCNC(=O)CC[C@H](NC(=O)CCCCCCCCCCCCCCCCCCC(=O)O)C(=O)O)C(=O)N[C@@H](CC(N)=O)C(=O)N[C@@H]([C@@H](C)O)C(=O)N[C@@H](C)C(=O)N[C@@H]([C@@H](C)O)C(=O)N1)[C@@H](C)O)C(=O)N1CCC[C@H]1C(=O)N[C@@H](CO)C(=O)N[C@@H](CO)C(=O)N[C@H](C(=O)N[C@@H](CC(N)=O)C(=O)N[C@H](C(=O)NCC(=O)N[C@@H](CO)C(=O)N[C@@H](CCCCN)C(=O)N[C@H](C(=O)N[C@@H](Cc1ccc(O)cc1)C(N)=O)[C@@H](C)O)C(C)C)[C@@H](C)O [Example 35] (H-K([γGlu-C20 diacid])CNTATCATQRLANFLRHSSPNFGAIPSSTNVGSKTY-NH2; disulfide 2-7; N-terminus assumed) | Ratio hCT/hAmylin binding [4, 18]: 50.3; Ratio hCT/hAmylin binding [4, 21]: 50.3; Ratio rCT/rAmylin binding [6, 24]: 65.1 |
| 5.09 | ≥ 200 | 122 (≈ 539 µg/mL) | ≥ 200 | 177 (≈ 782 µg/mL) | 111 (≈ 491 µg/mL) | ≥ 200 | ≥ 200 | ≥ 200 | 0.742 | 0.554 | 9.2 |  |  | 9.2 | 9.2 | 13 | 0.476 | 27.3 | 27.3 | CC[C@H](C)[C@H](NC(=O)[C@H](C)NC(=O)CNC(=O)[C@H](Cc1ccccc1)NC(=O)[C@H](CC(N)=O)NC(=O)[C@@H]1CCCN1C(=O)[C@H](CO)NC(=O)[C@H](CO)NC(=O)[C@H](Cc1c[nH]cn1)NC(=O)[C@H](CCCNC(=N)N)NC(=O)[C@H](CC(C)C)NC(=O)[C@H](Cc1ccccc1)NC(=O)[C@H](CCC(=O)O)NC(=O)[C@H](C)NC(=O)[C@H](CC(C)C)NC(=O)[C@H](CCCNC(=N)N)NC(=O)[C@H](CCC(N)=O)NC(=O)[C@@H](NC(=O)[C@H](C)NC(=O)[C@@H]1CSSC[C@H](NC(=O)[C@H](CCCCN)NC(=O)CC[C@H](NC(=O)CCCCCCCCCCCCCCCCCCC(=O)O)C(=O)O)C(=O)N[C@@H](CC(N)=O)C(=O)N[C@@H]([C@@H](C)O)C(=O)N[C@@H](C)C(=O)N[C@@H]([C@@H](C)O)C(=O)N1)[C@@H](C)O)C(=O)N1CCC[C@H]1C(=O)N[C@@H](CO)C(=O)N[C@@H](CO)C(=O)N[C@H](C(=O)N[C@@H](CC(N)=O)C(=O)N[C@H](C(=O)NCC(=O)N[C@@H](CO)C(=O)N[C@@H](Cc1c[nH]cn1)C(=O)N[C@H](C(=O)N[C@@H](Cc1ccc(O)cc1)C(N)=O)[C@@H](C)O)C(C)C)[C@@H](C)O [Example 18] ({C20 diacid-γGlu}-KCNTATCATQRLAEFLRHSSPNFGAIPSSTNVGSHTY-NH2; disulfide 2-7) |  |
